In paper PMC3276251 (Chemical Research in Toxicology, 2011):
Entries after “also recorded” stand apart in the source; their conditions may differ. Like-named read-outs stand apart in the source and are kept apart here.

Key:
[1] = Isolated perfused rat kidney; type: in vitro ADME, Sprague-Dawley rats; details: for Average amount in urine per 10-min period / Average amount in perfusate per 10-min period: 40–50, 50–60, 60–70 and 70–80 min periods, S.D. in parenthesis; for Concentration in urine / Concentration in perfusate: 70–80 min period, perfused with 50 µM AA-I; for Average excretion ratio (XR): mean (S.D.) of 7 collection periods 10–80 min, XR = Cl/(fu × GFR), Cl = Cu × UFR/Cp; for XR (excretion ratio = CLR/CLFILT) / CLFILT (filtration clearance) / Cumulative excretion (urinary) / Kidney accumulation / CL renal at 50 µM: 50 µM dose; for XR (excretion ratio = CLR/CLFILT): AUC method; for CLFILT (filtration clearance): GFR × fu; for Cumulative excretion (urinary) / Kidney accumulation: at 80 min post-dose; for Cumulative AA-I excretion in the urine (Xu): eight periods (0–80 min); for Concentration of AA-I in the urines: last periods; for Concentration of AA-I in the urines / Concentration in the urines: more or less constant; for CL renal at 50 µM: male, Sprague-Dawley, rat, CLR (renal clearance), cumulative urinary excretion / AUC 0–80 min post-dose; for Concentration in the urines: 30–80 min
[2] = type: in vivo, male Wistar rats; details: 2 mg AA-I subcutaneously; for Presence in collected rat urine: 24 hr urine; for Amount in the 24 hr urine sample: Wistar rats; for Average concentration in 24-hour collected urine: five rats, standard deviation in parentheses
[3] = target: albumin in perfusate (Bos taurus, UniProt P02769); experiment: Perfusate binding by ultrafiltration; type: in vitro ADME
Sequence of albumin in perfusate (P02769 25-607): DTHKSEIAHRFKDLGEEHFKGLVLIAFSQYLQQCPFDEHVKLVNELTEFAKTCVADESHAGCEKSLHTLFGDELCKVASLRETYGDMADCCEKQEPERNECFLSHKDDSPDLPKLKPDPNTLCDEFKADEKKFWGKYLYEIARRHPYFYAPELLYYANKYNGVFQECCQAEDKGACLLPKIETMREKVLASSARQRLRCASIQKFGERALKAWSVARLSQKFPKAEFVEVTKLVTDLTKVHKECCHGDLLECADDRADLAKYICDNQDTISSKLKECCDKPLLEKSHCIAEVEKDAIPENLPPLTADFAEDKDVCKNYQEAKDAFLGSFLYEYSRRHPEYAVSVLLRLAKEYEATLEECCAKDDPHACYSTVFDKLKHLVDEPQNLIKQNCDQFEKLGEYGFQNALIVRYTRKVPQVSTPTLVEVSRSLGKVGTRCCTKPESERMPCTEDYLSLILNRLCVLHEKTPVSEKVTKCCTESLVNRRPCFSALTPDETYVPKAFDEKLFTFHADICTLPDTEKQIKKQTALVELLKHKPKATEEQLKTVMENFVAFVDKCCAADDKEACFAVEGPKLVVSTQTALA

Compound | Average amount in urine per 10-min period ([1]; Kidney A) | Concentration in urine ([1]; Kidney A) [nM] | Average amount in urine per 10-min period ([1]; Kidney B) | Concentration in urine ([1]; Kidney B) [nM] | Average amount in perfusate per 10-min period ([1]; Kidney A) | Concentration in perfusate ([1]; Kidney A) [nM] | Average excretion ratio (XR) ([1]; Kidney A) | Average amount in perfusate per 10-min period ([1]; Kidney B) | Concentration in perfusate ([1]; Kidney B) [nM] | Average excretion ratio (XR) ([1]; Kidney B) | Amount in the 24 hr urine sample [2] | Average concentration in 24-hour collected urine [2] | also measured
O=C(O)c1cc2c(c3c1c([N+](=O)[O-])cc1c(OS(=O)(=O)O)cccc13)OCO2 [AA-Ia-O-S, 8-hydroxy-3,4-methylenedioxy-10-nitro-1-phenanthrenecarboxylic acid O-sulfate] | 0.36 (0.05) nanomoles | 360 | 0.96 (0.28) nanomoles | 740 | – | – | – | – | – | – | – | – | Identification in the perfusate ([1]; IPK): could not be identified; Presence in collected rat urine ([2]; listed as AA-Ia-O-S (5)): could only occasionally be observed by UV detection; also recorded: trace amounts
aristolactam Ia [L-Ia] | 0.10 (0.03) nanomoles | 160 | 0.089 (0.071) nanomoles | – | 0.97 (0.52) nanomoles | 10 | 62 (50) | 0.29 (0.09) nanomoles | 24 | 160 (131) | 3.4 % of the dose | 1600 (678) µg/Lt | –
COc1cccc2c1cc1c3c(cc4c(c32)OCO4)C(=O)N1 [L-I, aristolactam I] | 0.029 (0.013) nanomoles | 53 | 0.034 (0.015) nanomoles | 55 | 0.086 (0.062) nanomoles | 2 | 130 (85) | 0.35 (0.05) nanomoles | 18 | 33 (22) | 0.01 % of the dose | 5.4 (3.8) µg/Lt | fraction unbound [3]: 0.0235
COc1cccc2c1cc([N+](=O)[O-])c1c(C(=O)O)cc3c(c12)OCO3 [AA-I, 8-methoxy-6-nitro-phenanthro[3,4-d]-1,3-dioxole-5-carboxylic acid] | 0.36 (0.05) nanomoles | 480 | 1.24 (0.32) nanomoles | 940 | 1441 (139) nanomoles | 16070 | 0.14 (0.05) | 2447 (298) nanomoles | 23800 | 0.24 (0.05) | – | 68 (17) µg/Lt | fraction unbound [3]: 0.0225; XR (excretion ratio = CLR/CLFILT) ([1]; Kidney A): 0.10; CLFILT (filtration clearance) ([1]; Kidney A): 0.0146 mL/min; Cumulative excretion (urinary) ([1]; Kidney A): 0.063 % dose; Kidney accumulation ([1]; Kidney A): 68 % dose; Cumulative AA-I excretion in the urine (Xu) ([1]; Kidney A): 2.5 µmol; XR (excretion ratio = CLR/CLFILT) ([1]; Kidney B): 0.26; CLFILT (filtration clearance) ([1]; Kidney B): 0.0138 mL/min; Cumulative excretion (urinary) ([1]; Kidney B): 0.162 % dose; Kidney accumulation ([1]; Kidney B): 53 % dose; Cumulative AA-I excretion in the urine (Xu) ([1]; Kidney B): 6.5 µmol; Perfusate concentration of AA-I ([1]; Rat A, at 75 min): ca. 16 µM; Concentration of AA-I in the urines ([1]; Rat A): ~500 nM; Perfusate concentration of AA-I ([1]; Rat B, at 75 min): ~23 µM; Concentration of AA-I in the urines ([1]; Rat B): ~1200 nM; Amounts of AA-I in perfusate and urines ([1]; end of the experiment (80 min)): less than 50 % of the dose; CL renal at 50 µM ([1]; Kidney A): 0.0014 mL/min; CL renal at 50 µM ([1]; Kidney B): 0.003 mL/min; Perfusate concentration of AA-I ([1]; sample taken at 15 min): ca. 28 µM
O=C1Nc2cc3c(OC4OC(C(=O)O)C(O)C(O)C4O)cccc3c3c4c(cc1c23)OCO4 [L-Ia-O-G, 8-hydroxy-3,4-methylenedioxy-10-amino-1-phenanthrene-carboxylic acid lactam O-glucuronide] | 0.019 (0.007) nanomoles | 31 | 0.012 (0.009) nanomoles | 21 | – | – | – | – | 14 | – | 0.09 % of the dose | 66 (54) µg/Lt | –
O=C(O)c1cc2c(c3c1ccc1c(O)cccc13)OCO2 [compound 9, 3,4-methylenedioxy-8-hydroxy-1-phenanthrene-1-carboxylic acid] | – | – | – | – | – | – | – | – | – | – | – | – | Presence in collected rat urine [2]: could only occasionally be observed by UV detection
O=C1Nc2cc3c(OS(=O)(=O)O)cccc3c3c4c(cc1c23)OCO4 [L-Ia-O-S, 8-hydroxy-3,4-methylenedioxy-10-amino-1-phenanthrenecarboxylic acid lactam O-sulfate] | – | – | – | – | – | – | – | – | – | – | 0.09 % of the dose | 53 (24) µg/Lt | –
O=C(O)c1cc2c(c3c1c([N+](=O)[O-])cc1c(O)cccc13)OCO2 [AA-Ia, aristolochic acid Ia] | 0.72 (0.11) nanomoles | 680 | 6.7 (2.6) nanomoles | 4380 | 71.6 (31.0) nanomoles | 1240 | 12 (10) | 38 (10) nanomoles | 420 | 130 (77) | 14.3 % of the dose | 7900 (1300) µg/Lt | fu (fraction unbound to albumin in perfusate) ([3]; ultrafiltration, perfusate): 0.0220; Concentration in the urines ([1]; rat A): ca. 1 µM; Concentration in the urines ([1]; rat B): ~7000 nM
